IC50 and melting point data for ten molecules are collected here from paper PMC10537105, “Derivatives Incorporating Acridine, Pyrrole, and Thiazolidine Rings as Promising Antitumor Agents” (Molecules, 2023).

One series deals with HeLa. In words: MTT assay, HeLa cells. It is filed as cell-based, human. To be noted: Homo sapiens, HeLa, 72 h of incubation, read-out: IC50 values ± SD, HeLa. From the text: (§1) The impact of acridine spiro derivatives 6–10 (Figure 13) on the metabolic activity of various tumor cell lines HCT-116 (human colorectal carcinoma), Jurkat (human leukemia cells), HeLa (human cervical adenocarcinoma), MDA-MB-231, and MCF-7 (human breast adenocarcinoma), and normal cell lines COS-7 (monkey kidney cells) and BJ-5ta (skin fibroblasts) was investigated using the MTT assay. This assay measures the conversion of yellow 3-(4,5-dimethylthiazol-2-yl)-2,5-diphenyltetrazolium bromide (MTT) to insoluble purple formazan by metabolically active cells. The antiproliferative activities of the tested compounds were determined based on the results from the MTT assay, and the inhibitory concentration values (IC50) are presented in Table 5.
(§2) The human cancer cell lines employed in this study were sourced from reputable institutions, including the American Type Culture Collection (ATCC; Manassas, VA, USA) and the European Collection of Authenticated Cell Cultures (ECACC, Salisbury, UK). Specifically, HeLa (93021013, human cervical adenocarcinoma), HCT116 (CCL-247TM, human colorectal carcinoma), and Jurkat (88042803, human leukemic T-cell lymphoma) were cultured in RPMI 1640 medium (Biosera, Kansas City, MO, USA). In contrast, MCF-7 (HTB-22TM, human breast adenocarcinoma, ER+), MDA-MB-231 (HTB-26TM, human breast adenocarcinoma, ER−), and COS-7 (CRL-1651TM, kidney fibroblasts) were nurtured in high-glucose Dulbecco’s Modified Eagle Medium (DMEM) supplemented with sodium pyruvate (Biosera). Furthermore, BJ-5ta (CRL-4001TM, human dermal fibroblasts) was cultured in a composite medium of high-glucose DMEM and M199 (4:1) (Biosera), supplemented with Hygromycin B (0.01 mg/mL; Merck, Darmstadt, Germany). All culture media were enriched with a 10% fetal bovine serum (FBS; Gibco, Thermo Scientific, Rockford, IL, USA) and an antibiotic/antimycotic solution (Merck) to ensure optimal growth conditions. The cells were meticulously maintained within a humidified environment containing 5% CO2 at 37 °C. Regular screenings for mycoplasma contamination were conducted using Hoechst 33342 staining (Merck), confirming the integrity of the cell lines.
(§3) To assess the antiproliferative impact of the synthesized compounds 6–10, their half-maximal inhibitory concentration (IC50) and the MTT colorimetric assay were employed. MDA-MB-231 and MCF-7 cells were seeded into 96-well microplates (SARSTEDT, Nümbrecht, Germany) at a density of 5 × 10^3 cells per well. After 24 h of cell seeding, various concentrations (100, 50, and 10 µmol/L) of acridine derivatives 6–10 were introduced, alongside cisplatin (utilized as a reference) at concentrations of 5, 10, 20, 50, and 100 µmol/L. Subsequent to 24, 48, and 72 h of treatment, the cells in each well underwent incubation with MTT (5 mg/mL, Sigma-Aldrich Chemie, Steinheim, Germany) for 4 h at 37 °C in the dark. During this period, mitochondrial oxidoreductases metabolized MTT, forming insoluble formazan. Following this, 100 µL of SDS (10% […]) was added to dissolve the formazan crystals, and the cells were incubated for an additional 12 h. Absorbance at 540 nm was measured using the automated Cytation™ 3 Cell Imaging Multi-Mode Reader (Biotek, Winooski, VT, USA). Each test was performed in triplicate, and three independent experiments were conducted to ensure precision and reliability.
(Tetrazolium assays rely on reduction of a dye to a coloured formazan, in cell work by metabolically active cells.)

The test system of a further series is COS-7. Briefly: MTT assay, COS-7 normal cells. It counts as cell-based, monkey. To be noted: Primates, COS-7, 72 h of incubation, normal cell line, read-out: IC50 values ± SD, COS-7.
Excerpt: as §1, §2, §3

Another series has as its system Jurkat. Briefly: MTT assay, Jurkat cells. It counts as cell-based, human. Particulars: Homo sapiens, Jurkat; MTT, 72 h of incubation; read-out: IC50 values ± SD, Jurkat.
Excerpt: as §1, §2, §3

For the next series, the system named is BJ-5ta. In words: MTT assay, BJ-5ta normal fibroblasts. It is filed as cell-based, human. To be noted: Homo sapiens, Fibroblast, 72 h of incubation, normal cell line, read-out: IC50 values ± SD, BJ-5ta.
Excerpt: as §1, §2, §3

A further series relates to HCT-116. In words: MTT assay, HCT-116 cells. It is filed as cell-based, human. Particulars: Homo sapiens, HCT-116; MTT, 72 h of incubation; read-out: IC50 values ± SD, HCT-116.
Excerpt: as §1, §2, §3

In another series the test system is MCF-7. Briefly: MTT assay, MCF-7 cells. It counts as cell-based, human. Particulars: Homo sapiens, MCF7, 72 h of incubation, read-out: IC50 values ± SD, MCF-7.
Excerpt: as §1, §2, §3

Another series has as its system MDA-MB-231. In words: MTT assay, MDA-MB-231 cells. It is filed as cell-based, human. Particulars: Homo sapiens, MDA-MB-231, 72 h of incubation, read-out: IC50 values ± SD, MDA-MB-231.
Excerpt: as §1, §2, §3

The IC50 is the midpoint of a concentration-inhibition curve. In general, melting point refers to the temperature of the solid-liquid transition. Regarding `CCOC(=O)/C=C1\S/C(=N\N2C(=O)C(C#N)=CC23c2ccccc2Nc2ccccc23)N(c2ccc([N+](=O)[O-])cc2)C1=O` [8e, Ethyl 2-[(2Z,5Z)-2-({4′-cyano-5′-oxo-1′,5′-dihydro-10H-spiro[acridine-9,2′-pyrrol]-1′-yl}imino)-3-(4-nitrophenyl)-4-oxo-1,3-thiazolidin-5-ylidene]acetate], the melting point was 183 to 186 °C (dec.). The IC50 with HeLa came to 6.5 ± 0.43 µM. Further, the IC50 in the series on COS-7 was found to be 10.2 ± 0.5 µM. The IC50 in the series with Jurkat turned out to be 5.6 ± 0.04 µM. In addition, the IC50 in the series on BJ-5ta turned out to be 7.07 ± 0.26 µM. Moreover, the IC50 with HCT-116 is 5.45 ± 0.01 µM. The IC50 with MCF-7 was determined as 9.48 ± 0.27 µM. Also, the IC50 with MDA-MB-231 came to 8 ± 1.32 µM.

`CC1S/C(=N\N2C(=O)C(C#N)=CC23c2ccccc2Nc2ccccc23)N(c2ccccc2)C1=O` (centres unmarked) [9a, 1′-{[(2Z)-5-Methyl-4-oxo-3-phenyl-1,3-thiazolidin-2-ylidene]amino}-5′-oxo-1′,5′-dihydro-10H-spiro[acridine-9,2′-pyrrole]-4′-carbonitrile]: the melting point was 245 to 249 °C (dec.). Besides, the IC50 with HeLa was more than 100 µM. The IC50 with COS-7 is more than 100 µM. In addition, the IC50 in the series with Jurkat was more than 100 µM. Also, in the series on BJ-5ta, the IC50 was more than 100 µM. Moreover, the IC50 in the series on HCT-116 was more than 100 µM. Further, the IC50 in the series with MCF-7 is more than 100 µM. Also, the IC50 with MDA-MB-231 is more than 100 µM.

On to `COc1ccc(N2C(=O)C(C)S/C2=N\N2C(=O)C(C#N)=CC23c2ccccc2Nc2ccccc23)cc1` (centres unmarked) [9b, 1′-{[(2Z)-3-(4-Methoxyphenyl)-5-methyl-4-oxo-1,3-thiazolidin-2-ylidene]amino}-5′-oxo-1′,5′-dihydro-10H-spiro[acridine-9,2′-pyrrole]-4′-carbonitrile], for which the melting point is 219 to 224 °C (dec.). Besides, the IC50 with HeLa was more than 100 µM. The IC50 with COS-7 was more than 100 µM. Also, the IC50 with Jurkat is more than 100 µM. Besides, the IC50 in the series with BJ-5ta is more than 100 µM. Further, in the series on HCT-116, the IC50 was more than 100 µM. The IC50 with MCF-7 is more than 100 µM. In the series on MDA-MB-231, the IC50 is more than 100 µM.

Regarding `COc1cccc(N2C(=O)C(C)S/C2=N\N2C(=O)C(C#N)=CC23c2ccccc2Nc2ccccc23)c1` (centres unmarked) [9c, 1′-{[(2Z)-3-(3-Methoxyphenyl)-5-methyl-4-oxo-1,3-thiazolidin-2-ylidene]amino}-5′-oxo-1′,5′-dihydro-10H-spiro[acridine-9,2′-pyrrole]-4′-carbonitrile], the melting point was 237 to 240 °C (dec.). For the same molecule, the IC50 with HeLa was 44 ± 5.88 µM. Further, the IC50 with COS-7 was more than 100 µM. For the same molecule, the IC50 in the series on Jurkat turned out to be 25.8 ± 2.58 µM. For the same molecule, in the series on BJ-5ta, the IC50 is 32.7 ± 0.47 µM. Also, in the series with HCT-116, the IC50 turned out to be 32.7 ± 1.51 µM. For the same molecule, the half-inhibitory concentration (IC50) in the series on MCF-7 is 65.3 ± 1.89 µM. For the same molecule, the IC50 in the series on MDA-MB-231 was 40.8 ± 0.84 µM.

Take `CC1S/C(=N\N2C(=O)C(C#N)=CC23c2ccccc2Nc2ccccc23)N(c2ccc(F)cc2)C1=O` (centres unmarked) [9d, 1′-{[(2Z)-3-(4-Fluorophenyl)-5-methyl-4-oxo-1,3-thiazolidin-2-ylidene]amino}-5′-oxo-1′,5′-dihydro-10H-spiro[acridine-9,2′-pyrrole]-4′-carbonitrile]: the melting point was 235 to 239 °C (dec.). Further, in the series on HeLa, the IC50 was more than 100 µM. In the series on COS-7, the IC50 is more than 100 µM. Further, the IC50 with Jurkat was more than 100 µM. In addition, the IC50 in the series on BJ-5ta was more than 100 µM. In addition, the IC50 in the series on HCT-116 was more than 100 µM. In addition, the IC50 with MCF-7 is more than 100 µM. The IC50 in the series on MDA-MB-231 was more than 100 µM.

For the molecule `CC1S/C(=N\N2C(=O)C(C#N)=CC23c2ccccc2Nc2ccccc23)N(c2ccc([N+](=O)[O-])cc2)C1=O` (centres unmarked) [9e, 1′-{[(2Z)-5-Methyl-3-(4-nitrophenyl)-4-oxo-1,3-thiazolidin-2-ylidene]amino}-5′-oxo-1′,5′-dihydro-10H-spiro[acridine-9,2′-pyrrole]-4′-carbonitrile], the melting point was 170 to 173 °C (dec.). The IC50 in the series on HeLa is more than 100 µM. Further, the IC50 in the series with COS-7 was more than 100 µM. In addition, the IC50 in the series with Jurkat was determined as 34.4 ± 2.13 µM. In the series on BJ-5ta, the IC50 is more than 100 µM. The IC50 in the series with HCT-116 is more than 100 µM. For the same molecule, the IC50 with MCF-7 is more than 100 µM. In the series with MDA-MB-231, the IC50 was more than 100 µM.

Regarding `CCCC1S/C(=N\N2C(=O)C(C#N)=CC23c2ccccc2Nc2ccccc23)N(c2ccccc2)C1=O` (centres unmarked) [10a, 5′-Oxo-1′-{[(2Z)-4-oxo-3-phenyl-5-propyl-1,3-thiazolidin-2-ylidene]amino}-1′,5′-dihydro-10H-spiro[acridine-9,2′-pyrrole]-4′-carbonitrile], the melting point was 238 to 240 °C (dec.). Moreover, in the series with HeLa, the IC50 was more than 100 µM. The IC50 in the series with COS-7 is more than 100 µM. In addition, the IC50 in the series on Jurkat is more than 100 µM. Also, the IC50 with BJ-5ta is more than 100 µM. For the same molecule, the IC50 in the series on HCT-116 was more than 100 µM. Moreover, in the series with MCF-7, the IC50 is more than 100 µM. In addition, the IC50 in the series on MDA-MB-231 was more than 100 µM.

`CCCC1S/C(=N\N2C(=O)C(C#N)=CC23c2ccccc2Nc2ccccc23)N(c2ccc(OC)cc2)C1=O` (centres unmarked) [10b, 1′-{[(2Z)-3-(4-Methoxyphenyl)-4-oxo-5-propyl-1,3-thiazolidin-2-ylidene]amino}-5′-oxo-1′,5′-dihydro-10H-spiro[acridine-9,2′-pyrrole]-4′-carbonitrile]: the melting point is 247 to 250 °C (dec.). For the same molecule, the IC50 with HeLa is more than 100 µM. For the same molecule, the IC50 in the series on COS-7 is more than 100 µM. The IC50 with Jurkat was more than 100 µM. Also, in the series with BJ-5ta, the IC50 is more than 100 µM. Further, the IC50 with HCT-116 was more than 100 µM. Moreover, the IC50 in the series on MCF-7 was more than 100 µM. Further, the IC50 in the series with MDA-MB-231 is more than 100 µM.

Turning to `CCCC1S/C(=N\N2C(=O)C(C#N)=CC23c2ccccc2Nc2ccccc23)N(c2cccc(OC)c2)C1=O` (centres unmarked) [10c, 1′-{[(2Z)-3-(3-Methoxyphenyl)-4-oxo-5-propyl-1,3-thiazolidin-2-ylidene]amino}-5′-oxo-1′,5′-dihydro-10H-spiro[acridine-9,2′-pyrrole]-4′-carbonitrile], the melting point is 229 to 231 °C (dec.). For the same molecule, the IC50 in the series with HeLa is more than 100 µM. Besides, the IC50 in the series on COS-7 is more than 100 µM. Moreover, the IC50 with Jurkat was more than 100 µM. For the same molecule, in the series on BJ-5ta, the IC50 is more than 100 µM. Besides, in the series with HCT-116, the IC50 was more than 100 µM. In addition, the IC50 with MCF-7 was more than 100 µM. Further, in the series on MDA-MB-231, the IC50 was more than 100 µM.

As to `CCCC1S/C(=N\N2C(=O)C(C#N)=CC23c2ccccc2Nc2ccccc23)N(c2ccc(F)cc2)C1=O` (centres unmarked) [10d, 1′-{[(2Z)-3-(4-Fluorophenyl)-4-oxo-5-propyl-1,3-thiazolidin-2-ylidene]amino}-5′-oxo-1′,5′-dihydro-10H-spiro[acridine-9,2′-pyrrole]-4′-carbonitrile], the melting point was 230 to 232 °C (dec.). Moreover, the IC50 with HeLa was more than 100 µM. Besides, the IC50 with COS-7 is more than 100 µM. Moreover, the IC50 in the series with Jurkat is more than 100 µM. Besides, in the series on BJ-5ta, the IC50 is more than 100 µM. Moreover, the IC50 in the series with HCT-116 was more than 100 µM. Besides, the IC50 in the series on MCF-7 was more than 100 µM. In addition, in the series on MDA-MB-231, the IC50 was more than 100 µM.
